The source of these data is publication PMC3501516, “Anti-Diabetic Efficacy and Impact on Amino Acid Metabolism of GRA1, a Novel Small-Molecule Glucagon Receptor Antagonist” (PLoS ONE, 2012).

Details of series [1]: method as in PMID 16731832. The settings on record: cited from earlier work.
Another series concerns hGCGR HFD/STZ mice. Description: Antihyperglycemic efficacy in hGCGR HFD/STZ mice (acute, chronic, combination with des-fluoro-sitagliptin). In kind it is in vivo, hGCGR mouse. To be noted: GRA1 10 mg/kg, Des-F-sita 200 mg/kg. An excerpt: The present study made use of a line of hGCGR-expressing mouse (“hGCGR mouse”) generated previously by substituting the hGCGR gene for the mouse GCGR gene. These mice were crossed with C57BL/6J.ob/+ mice (Jackson Laboratories, Bar Harbor, ME) to obtain an hGCGR.ob/+ mouse line. The hGCGR.ob/+ mice were then intercrossed to obtain hGCGR.ob/ob, hGCGR.ob/+, and hGCGR.+/+ mice (with the hGCGR.ob/+ and hGCGR.+/+ mice serving as littermate controls). […] obese (DIO) hGCGR mice were generated by maintaining hGCGR mice on a high-fat diet (HFD) in which 45–60% of calories were in fat (Product S3282, Bio-Serv, Frenchtown, NJ). High-fat-diet-streptozotocin-treated (HFD/STZ) diabetic mice were generated in-house as previously described.
Acute glucose lowering was studied in non-fasted hGCGR.ob/ob mice and HFD/STZ mice administered single doses p.o. of 1, 3 and 10 mg/kg GRA1 in 10 mL/kg 0.5% aqueous methylcellulose. Animals were fasted during the interval between dosing and the final blood glucose measurement. Glucose was measured in blood from tail bleeds using a OneTouch glucometer. In the experiments with hGCGR HFD/STZ mice, treatment groups were matched with respect to body weight and blood glucose levels.
Animals were dosed chronically with GRA1 and the DPP-4 inhibitor des-fluoro-sitagliptin by administering these agents as food admixtures. The admixtures were prepared in-house and by Research Diets (New Brunswick, NJ), with drug concentrations adjusted weekly on the basis of average food consumption and animal weight to provide targeted daily doses. In the GRA1 experiments, the targeted doses were 3, 6, 10, and 30 mg/kg•day. In des-fluoro-sitagliptin experiments, the targeted dose was 200 mg/kg•day, a relatively high amount necessary because this compound has a half-life in rodents of 1–2 h.
Plasma glucagon and active GLP-1 were measured using commercial ELISA kits (Linco Research Immunoassay, St. Charles, MO). […] Plasma insulin was determined by ELISA with a commercial kit (ALPCO Diagnostics, Windham, NH). Plasma concentrations of glycated hemoglobin A1c (HbA1c) were measured using a Micromat II test kit from Bio-Rad Laboratories (Hercules, CA). Total cholesterol, low-density lipoprotein cholesterol (LDL-c) and non-LDL-c, and aspartate aminotransferase were measured using a Roche P Modular Clinical Chemistry analyzer (Indianapolis, IN).
Figure 5 GRA1 lowers glucose in hGCGR HFD/STZ mice and further enhances the efficacy of a DPP-4 inhibitor. (A) Mean (±SEM) blood glucose hGCGR HFD/STZ mice treated with a single dose of 1, 3, or 10 mg/kg GRA1. (B) Non-fasted blood glucose concentrations in hGCGR HFD/STZ mice treated for 6 weeks with 10 mg/kg·day GRA1, 200 mg/kg·day des-fluoro-sitagliptin (des-F-sita), or the two agents in combination. (Additional data from this study are in Table 4.) *p<0.05, **p<0.01, and ***p<0.001 versus HFD/STZ controls; ^#non-significant (p>0.05) versus non-STZ controls; n = 8–15 animals per group.

The next series deals with humans. More on the design: method as in earlier work. To be noted: clinical studies in humans, MK-0893 combined with the DPP-4 inhibitor sitagliptin; cited from earlier work.

Marks after values point to notes of the source that are not given here.

Take `N[C@@H](CC(=O)N1CCn2c(nnc2C(F)(F)F)C1)Cc1cc(F)ccc1F` [Des-F-sita, 7-[(3R)-3-amino-1-oxo-4-(2,5-difluorophenyl)butyl]-5,6,7,8-tetrahydro-3-(trifluoromethyl)-1,2,4-triazolo[4,3-α]pyrazine, reference compound]: the Half-life in rodents in series [1] is 1 to 2 h. In addition, the HbA1c in the series with hGCGR HFD/STZ mice (5 weeks of treatment, control diet 6.1±0.4) came out at 5.0±0.4%. Moreover, the “6-h fasting blood glucose” value in the series on hGCGR HFD/STZ mice (5 weeks of treatment, control diet 323±33) amounted to 283 ± 34 mg/dL. In addition, the “Liver Triglyceride” value with hGCGR HFD/STZ mice (6 weeks, necropsy tissue, control diet 143±10) is listed as 94±15* µg/mg. The Free fatty acid in the series on hGCGR HFD/STZ mice (6 weeks, terminal plasma, control diet 1.4±0.2) was found to be 1.1 ± 0.1 mM. Also, in the series with hGCGR HFD/STZ mice (6 weeks, terminal plasma, control diet 2.5±0.1), the “Active GLP-1” value amounted to 2.9 ± 0.2 pM. Further, in the series with hGCGR HFD/STZ mice (6 weeks, terminal plasma, control diet 8.1±1.1), the “Inactive GLP-1” value is recorded as 3.2±0.2*** pM. Further, in the series with hGCGR HFD/STZ mice (6 weeks, terminal plasma, control diet 133±21), the Plasma glucagon was found to be 87 ± 4 pg/mL. The Triglyceride with hGCGR HFD/STZ mice (6 weeks, terminal plasma, control diet 184±26) worked out at 161 ± 15 mg/dL.
`COc1ccc2cc(-c3cc(-c4cc(Cl)cc(Cl)c4)nn3[C@@H](C)c3ccc(C(=O)NCCC(=O)O)cc3)ccc2c1` [MK-0893, N-[(4-{(1S)-1-[3-(3,5-Dichlorophenyl)-5-(6-methoxynaphthalen-2-yl)-1H-pyrazol-1-yl]ethyl}phenyl)carbonyl]-beta-alanine]: the “Glucose-lowering efficacy of combination with sitagliptin” value with humans is “did not result in significant additional glucose-lowering efficacy”.
